Series [1] can be described thus: Human clinical trial, single oral doses: serum concentration. The series is classed as in vivo. The settings on record: serum, ARI-001 2000 mg single oral dose, preliminary, read-out: Cmax, serum. As for the experimental part: Five periods of single dose escalation, with 8 subjects per cohort (6 drug: 2 placebo) involve a total 40 subjects. Appropriately blinded matching placebos are provided. Cohort 1 receives 500 mg of ARI-001 formulated as a single oral tablet, plus eleven placebo tablets; Cohort 2, […] of ARI-001, plus ten placebo tablets; Cohort 3, […] of ARI-001, plus eight placebo tablets; Cohort 4, […] of ARI-001, plus four placebo tablets; Corhort 5, […] of ARI-001. Placebo-only subjects take twelve placebo tablets. Each tablet is a compressed, film-coated tablet suitable for oral administration.
Pharmacokinetic samples are collected at 0-45 min pre-dose and at 0.5, 1, 1.5, 2, 4, 6, 8, 12, 24, 30 and 168 hours after dosing. […]
[…] […] Analysis of all samples is performed at a central laboratory.

A further series relates to healthy adult volunteers. The series is described as follows: Human clinical trial, single escalating oral doses: flushing. The series is classed as in vivo. As to conditions: single oral doses 500 to 6000 mg; preliminary. As for the experimental part: A randomized, double-blind, placebo-controlled study is performed with sequential escalating doses by cohort with observations for 30 hours post dosing and return visit on 8th day. Study subjects are healthy male and female adult volunteers, age 18-60 years, with LDL-C>130 mg/dL and weight <85 kg. Subjects are randomly assigned to receive study drug or placebo.
Five periods of single dose escalation, with 8 subjects per cohort (6 drug: 2 placebo) involve a total 40 subjects. Appropriately blinded matching placebos are provided. Cohort 1 receives 500 mg of ARI-001 formulated as a single oral tablet, plus eleven placebo tablets; Cohort 2, 1000 mg taken as two 500 mg tablets of ARI-001, plus ten placebo tablets; Cohort 3, 2000 mg taken as four 500 mg tablets of ARI-001, plus eight placebo tablets; Cohort 4, 4000 mg taken as eight 500 mg tablets of ARI-001, plus four placebo tablets; Corhort 5, 6000 mg taken as twelve 500 mg tablets of ARI-001. Placebo-only subjects take twelve placebo tablets. Each tablet is a compressed, film-coated tablet suitable for oral administration. […]

Series [2] deals with plasma lipids in animal models. As to the kind of experiment: Summary of lipid efficacy studies in animal models. The series is classed as in vivo. The source says:
A number of pharmacokinetic, safety, and efficacy studies for ARI-001 have been completed in a variety of animals, including mice, rats, Golden Syrian hamsters, dogs, and monkeys. Overall, results from these studies have established the following.

In a further series the test system is adiponectin mRNA. The series is described as follows: qPCR of adipose mRNA in HF/HS hamsters. The series is classed as in vivo, hamster. The settings on record: ARI-001 2240 mg/kg oral 18 days; relative to mean of vehicle. The text has this: (§1) Hamster livers and adipose were preared in manners similar to that described for ARI-001 concentration determination. Briefly, to prepare for analysis, a sample of liver was excised from the frozen mass, weighed, and homogenized with a tissue grinder followed by sonication in buffer. The solid materials were then removed by centrifugation. The resulting lysate was used in qPCR analysis to quantify the specific mRNA measured (vide infra) using primers designed for the specific sequences of interest. All mRNA quantities were normalized to vehicle-treated animal, and mRNA levels were expressed as a fold increase or decrease relative to vehicle-treated. […] During grinding, liquid nitrogen was added to ensure the sample of adipose remained solid. The ground sample was transferred to a tared tube to weigh total sample. This ground sample was treated with buffer and prepared for qPCR to quantify specific mRNA quantities.

Another series concerns high fat-fed hamsters. The series is described as follows: Plasma glucose in chronically dosed hamsters. As to conditions: ARI-001 1120 and 2240 mg/kg oral 18 days, vs vehicle. The series is classed as in vivo, hamster. The method, then: These animals were dosed for 18 consecutive days, while being on a HF/HS diet for a total of nearly 5 weeks. We also examined the glucose levels in the plasma of these animals. For pharmacokinetic studies, we utilized wild type mice for both single and repeated administration study. Finally, pharmacokinetic studies were corroborated by data from single and repeated administration to monkeys.

Series [3] can be described thus: Multiple administration (30 days) pharmacokinetic study in wild type mice. The series is classed as in vivo, C57BL/6 mice. As to conditions: 996, 1493, 2240, 3360 mg/kg oral daily 30 days. As for the experimental part:
Wild type C57BL/6 mice were dosed with ARI-001 in solution via oral gavage daily for 30 consecutive days. Over the course of five 24-hour periods, blood was collected, and the resultant plasma was analyzed for concentrations of ARI-001. Four doses were used: 996 mg/kg, 1493 mg/kg, 2240 mg/kg, and 3360 mg/kg. […] However, these values were time-independent, as there was no trend observed between these parameters and days of administration. See FIGS. 15A-15D and FIGS. 16A-16B.

A further series has as its system mice. As to the kind of experiment: Doppler capillary blood flow (flush proxy) in mice. The series is classed as in vivo. The settings on record: Doppler capillary blood flow measurements.
In another series the test system is ApoAI mRNA. As to the kind of experiment: qPCR of liver mRNA in HF/HS hamsters. The series is classed as in vivo, hamster. As to conditions: ARI-001 2240 mg/kg oral 18 days; relative to mean of vehicle.
Text: as §1

The next series relates to ABCA1 mRNA. The series is described as follows: qPCR of liver mRNA in HF/HS hamsters. The series is classed as in vivo, hamster. The settings on record: ARI-001 2240 mg/kg oral 18 days; relative to mean of vehicle.
Text: as §1

A further series relates to SR-BI mRNA. As to the kind of experiment: qPCR of liver mRNA in HF/HS hamsters. The series is classed as in vivo, hamster. The settings on record: ARI-001 2240 mg/kg oral 18 days; relative to mean of vehicle.
Text: as §1

Results on 1 molecule are retold here after US8937063B2 (Trustees of Tufts College, priority 2010, dated 2015).

The structures appear in SMILES notation.

In the case of `O=C(O)c1ccc(CCN2CCOCC2)nc1` [ARI-001], the Cmax in series [1] is roughly 7500 ng/mL. For the same molecule, the signs of flushing entry with healthy adult volunteers is “no patients exhibited any signs of flushing”. Moreover, the “plasma lipid changes, once daily vs same total dose twice daily” value in series [2] (in vivo) was “greater than or equal to the lipid altering effects observed with the same total dose of ARI-001 given twice daily”. For the same molecule, the “lipid altering effects of once-daily dose vs niacin” value in series [2] (niacin at nearly 2-fold higher dose once a day) is “more pronounced”. Also, the “Adipose Adiponectin mRNA per mg tissue” value in the series on adiponectin mRNA came to 2.00 ± 0.23 fold-change. Further, the plasma glucose result in the series with high fat-fed hamsters was “neither dose of ARI-001 produced any significant change in glucose levels”. For the same molecule, in series [3], the “Cmax levels and AUC as a function of days of administration” value is listed as “time-independent”; the “Cmax levels and total 24-hour exposure (AUC) as a function of dose” value is recorded as “dose-dependent”. The “capillary vasodilation or hyperemia (a proxy of flush)” value in the series on mice is listed as “no evidence of capillary vasodilation or hyperemia”. The “Liver ApoAI mRNA per mg tissue” value with ApoAI mRNA is 1.72 ± 0.24 fold-change. Besides, the “Liver ABCA1 mRNA per mg tissue” value with ABCA1 mRNA stood at 1.54 ± 0.48 fold-change. The “Liver SR-BI mRNA per mg tissue” value with SR-BI mRNA is 1.50 ± 0.33 fold-change.
